Experimental data taken from ChEMBL document CHEMBL1201862, “PubChem BioAssay data set” (2004).
“And” between values parts separate entries of the source, which are not always exact repeats. Identical values can stand only once.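 Values below derive from 48-hour exposures of cells grown in 96-well plates, with endpoints linearly interpolated between the two concentrations bracketing the appropriate inhibition level. Here, GI50 denotes the concentration required for 50% inhibition of growth.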 The source made the active and inactive calls. Cut-off read from the data, not from the text of the source: active = GI50 up to about 1.1 µM and inactive = higher.

How the values were obtained:
Assay in all cases: inhibition of tumour cell growth, NCI panel, 48 h
[1] = tested on: K562
[2] = tested on: MDA-N
[3] = tested on: Hs-578T
[4] = tested on: NCI-H460
[5] = tested on: UACC-62
[6] = tested on: EKVX
[7] = tested on: OVCAR-5
[8] = tested on: SK-MEL-5
[9] = tested on: SN12C
[10] = tested on: 786-0
[11] = tested on: MDA-MB-435
[12] = tested on: KM12
[13] = tested on: HT-29
[14] = tested on: RXF 393
[15] = tested on: Malme-3M
[16] = tested on: NCI-H23
[17] = tested on: CAKI-1
[18] = tested on: OVCAR-3
[19] = tested on: NCI-H226
[20] = tested on: HCC 2998

SMILES	GI50 [1]	GI50 [2]	GI50 [3]	GI50 [4]	GI50 [5]	GI50 [6]	GI50 [7]	GI50 [8]	GI50 [9]	GI50 [10]	GI50 [11]	GI50 [12]	GI50 [13]	GI50 [14]	GI50 [15]	GI50 [16]	GI50 [17]	GI50 [18]	GI50 [19]	GI50 [20]
O=[N+]([O-])c1ccccc1CSc1nc(O)c2nc[nH]c2n1	> 100 µM (inactive)	> 100 µM (inactive)	52.4 µM (inactive)	> 100 µM (inactive)	> 100 µM (inactive) and 88.1 µM (inactive)	51.8 µM (inactive)	> 100 µM (inactive) and 92 µM (inactive)	> 100 µM (inactive)	> 100 µM (inactive) and 66.4 µM (inactive)	> 100 µM (inactive)	> 100 µM (inactive) and 55 µM (inactive)	> 100 µM (inactive)	72.6 µM (inactive)	> 100 µM (inactive)	> 100 µM (inactive)	> 100 µM (inactive)	90.4 µM (inactive)	> 100 µM (inactive)	–	–
COc1ccc(-c2cc(O)c3nc4ccccc4n3c2)cc1	> 100 µM (inactive)	> 100 µM (inactive)	85.7 µM (inactive)	> 100 µM (inactive)	> 100 µM (inactive)	> 100 µM (inactive)	–	–	> 100 µM (inactive)	> 100 µM (inactive)	> 100 µM (inactive)	> 100 µM (inactive)	> 100 µM (inactive)	> 100 µM (inactive)	> 100 µM (inactive)	> 100 µM (inactive)	> 100 µM (inactive)	> 100 µM (inactive)	> 100 µM (inactive)	–
O=C1N/C(=N/N=C/c2cccs2)N/C1=C\c1ccco1	37.4 µM (inactive)	2.93 µM (inactive)	29.3 µM (inactive)	23.2 µM (inactive)	60.7 µM (inactive)	> 100 µM (inactive)	> 100 µM (inactive)	24.3 µM (inactive)	43.8 µM (inactive)	51.6 µM (inactive)	20.6 µM (inactive)	34 µM (inactive)	39.6 µM (inactive)	90.6 µM (inactive)	38.6 µM (inactive)	45.3 µM (inactive)	> 100 µM (inactive)	22.5 µM (inactive)	21.3 µM (inactive)	–
c1ccc2cc3c(NC4=NCCO4)cccc3cc2c1	37.2 µM (inactive)	1.79 µM (inactive)	41.8 µM (inactive)	29 µM (inactive)	> 100 µM (inactive)	76.2 µM (inactive)	> 100 µM (inactive)	35 µM (inactive)	58.5 µM (inactive)	57 µM (inactive)	37.1 µM (inactive)	44.7 µM (inactive)	29.9 µM (inactive)	> 100 µM (inactive)	36.1 µM (inactive)	32.9 µM (inactive)	52.5 µM (inactive)	32.2 µM (inactive)	52.2 µM (inactive)	–
O=C(OCC1OC(c2nn[nH]n2)C(OC(=O)c2ccccc2)C1OC(=O)c1ccccc1)c1ccccc1 (stereo not given)	46.2 µM (inactive)	> 100 µM (inactive)	–	71 µM (inactive)	53 µM (inactive)	66.1 µM (inactive)	> 100 µM (inactive)	> 100 µM (inactive)	> 100 µM (inactive)	> 100 µM (inactive)	> 100 µM (inactive)	67.6 µM (inactive)	61.9 µM (inactive)	41.9 µM (inactive)	> 100 µM (inactive)	> 100 µM (inactive)	> 100 µM (inactive)	> 100 µM (inactive)	79.8 µM (inactive)	> 100 µM (inactive)
Nc1ncc2c(n1)-c1ccccc1OC2N1CCOCC1 (stereo not given)	> 100 µM (inactive)	> 100 µM (inactive)	> 100 µM (inactive)	> 100 µM (inactive)	> 100 µM (inactive)	85.9 µM (inactive)	> 100 µM (inactive)	> 100 µM (inactive)	> 100 µM (inactive)	> 100 µM (inactive)	> 100 µM (inactive)	> 100 µM (inactive)	> 100 µM (inactive)	> 100 µM (inactive)	> 100 µM (inactive)	> 100 µM (inactive)	> 100 µM (inactive)	> 100 µM (inactive)	> 100 µM (inactive)	–
O=C1CCC2(O)C3Cc4ccc(Oc5nnnn5-c5ccccc5)c5c4C2(CCN3CC2CC2)C1O5 (stereo not given)	22.2 µM (inactive)	22 µM (inactive)	28.9 µM (inactive)	56.5 µM (inactive)	28.7 µM (inactive)	> 100 µM (inactive)	> 100 µM (inactive)	12.8 µM (inactive)	> 100 µM (inactive)	20 µM (inactive)	19.9 µM (inactive)	> 100 µM (inactive)	26.4 µM (inactive)	39.1 µM (inactive)	17.8 µM (inactive)	> 100 µM (inactive)	> 100 µM (inactive)	46.7 µM (inactive)	–	–
CC(O)(CNS(=O)(=O)c1ccccc1)c1ccccc1 (stereo not given)	> 100 µM (inactive)	> 100 µM (inactive)	> 100 µM (inactive)	> 100 µM (inactive)	> 100 µM (inactive)	> 100 µM (inactive)	> 100 µM (inactive)	> 100 µM (inactive)	> 100 µM (inactive)	> 100 µM (inactive)	> 100 µM (inactive)	> 100 µM (inactive)	> 100 µM (inactive)	> 100 µM (inactive)	> 100 µM (inactive)	> 100 µM (inactive)	> 100 µM (inactive)	> 100 µM (inactive)	> 100 µM (inactive)	–
CN(C)CC1CCC(CN(C)C)C(=O)C1=O (stereo not given)	2.27 µM (inactive)	> 10 µM (inactive)	–	18.8 µM (inactive)	16.1 µM (inactive)	17.3 µM (inactive)	16.5 µM (inactive)	16.3 µM (inactive)	18.4 µM (inactive)	5.14 µM (inactive)	17.8 µM (inactive)	14.2 µM (inactive)	7.64 µM (inactive)	1.82 µM (inactive)	1.92 µM (inactive)	14.6 µM (inactive)	1.99 µM (inactive)	2.31 µM (inactive)	4.41 µM (inactive)	20.9 µM (inactive)
NC(=O)CC(N)c1nnn[nH]1 (stereo not given)	> 100 µM (inactive)	> 100 µM (inactive)	> 100 µM (inactive)	> 100 µM (inactive)	> 100 µM (inactive)	> 100 µM (inactive)	> 100 µM (inactive)	> 100 µM (inactive)	> 100 µM (inactive)	> 100 µM (inactive)	> 100 µM (inactive)	> 100 µM (inactive)	> 100 µM (inactive)	> 100 µM (inactive)	> 100 µM (inactive)	> 100 µM (inactive)	> 100 µM (inactive)	> 100 µM (inactive)	> 100 µM (inactive)	–
CC1=NN(C(=O)c2ccccc2O)C(=O)/C1=C/c1cccc([N+](=O)[O-])c1	0.364 µM (active)	0.608 µM (active)	–	0.658 µM (active)	0.408 µM (active)	3.99 µM (inactive)	10.4 µM (inactive)	2.57 µM (inactive)	3.01 µM (inactive)	2.47 µM (inactive)	0.451 µM (active)	0.703 µM (active)	38.7 µM (inactive)	0.189 µM (active)	21.1 µM (inactive)	0.753 µM (active)	2.2 µM (inactive)	1.87 µM (inactive)	0.274 µM (active)	36.1 µM (inactive)
